Patent US11802133B2, “Heterocyclic compounds as monoacylglycerol lipase inhibitors” (Hoffmann-La Roche Inc., priority 2018, dated 2023)

Molecular target: MAGL (recombinant wild-type) (Homo sapiens (Human), UniProt Q99685)
Test: 4-NPA assay: MAGL inhibitory activity by hydrolysis of 4-nitrophenylacetate (absorbance at 405 nm)
Format: biochemical
Details: measured in 4-NPA assay (footnote [a]); 1 nM MAGL, 300 μM 4-nitrophenylacetate
Description: This assay is hereinafter abbreviated “4-NPA assay”.
The plate was shaked for 1 min at 2000 rpm (Variomag Teleshake) and then incubated for 15 min at RT. […] The final concentrations in the assay were 1 nM MAGL and 300 μM 4-Nitrophenylacetate. […] A second measurement was then done after incubation for 80 min at RT. From the two measurements, the slope was calculated by subtracting the first from the second measurement.

MAGL (recombinant wild-type), sequence (Q99685 whole entry, species assumed): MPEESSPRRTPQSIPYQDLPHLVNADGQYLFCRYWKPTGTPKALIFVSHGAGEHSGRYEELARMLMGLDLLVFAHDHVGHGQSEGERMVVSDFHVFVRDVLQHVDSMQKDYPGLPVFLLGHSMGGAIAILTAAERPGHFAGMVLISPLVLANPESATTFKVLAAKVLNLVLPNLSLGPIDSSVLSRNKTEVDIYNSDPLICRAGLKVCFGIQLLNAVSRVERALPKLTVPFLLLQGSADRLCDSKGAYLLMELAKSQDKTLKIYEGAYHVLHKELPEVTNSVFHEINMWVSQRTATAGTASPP

SMILES | IC50
O=C1CO[C@H]2CCN(C(=O)N3CC(F)(COc4ccc(F)cc4Cl)C3)C[C@H]2N1 [Example 109] | 223 nM
O=C1CO[C@H]2CCN(C(=O)N3CC(OCc4ccc(C(F)(F)F)cc4F)(C(F)(F)F)C3)C[C@H]2N1 [Example 110] | 2180 nM
CC1(OCc2ccc(C(F)(F)F)cc2F)CN(C(=O)N2CC[C@@H]3OCC(=O)N[C@@H]3C2)C1 [Example 111] | 20 nM
O=C1CO[C@H]2CCN(C(=O)N3CC(OCc4cc(C(F)(F)F)c(F)cc4F)C3)C[C@H]2N1 [Example 112] | 12 nM

Stronger by IC50, values ahead:

IC50 | SMILES
5 nM | O=C1CO[C@H]2CCN(C(=O)N3CC(OCc4cc(C(F)(F)F)ccc4F)C3)C[C@H]2N1 [Example 113]
5 nM | O=C1CO[C@H]2CCN(C(=O)N3CC(OCc4ccc(C(F)(F)F)c(F)c4)C3)C[C@H]2N1 [Example 114]
3 nM | COc1cc(C(F)(F)F)ccc1COC1CN(C(=O)N2CC[C@@H]3OCC(=O)N[C@@H]3C2)C1 [Example 115]
4 nM | O=C1CO[C@H]2CCN(C(=O)N3CC(OCc4ccc(Cl)cc4C(F)(F)F)C3)C[C@H]2N1 [Example 116]
10 nM | CC1C(OCc2ccc(C(F)(F)F)cc2)CN1C(=O)N1CC[C@@H]2OCC(=O)N[C@@H]2C1 (stereo partly drawn) [Example 117]
